From US7432302B2, “Composition containing polyamine transport inhibitor and use thereof” (MediQuest Therapeutics, Inc., priority 2001, dated 2008)
Where two headings read alike, the source gives them in different places.

Assays:
[1] = tested on: cell growth in the presence of DFMO; assay: Growth inhibition assay in combination with DFMO; type: cell-based; settings: 144 h; note: 0.5 µM SPD
Experimental: Medias were obtained from Mediatech, Inc. (Hemdon, Va.) and serums from Gibco BRL (Gaithersburg, Md.). 50 U/ml penicillin, 50 μg/ml streptomycin and 2 mM L-glutamine (all from Bio Whittaker, Walkersville, Md.) were included in all cultures. […] When cells were cultured with polyamines or ORI compounds, 1 mM aminoguanidine (AG; Sigma) was included to inhibit serum amine oxidase activity.

spermidine synthase = biological target: T1, spermidine synthase (Homo sapiens, UniProt P19623); settings: cited from earlier work
T1 sequence (P19623 1-302): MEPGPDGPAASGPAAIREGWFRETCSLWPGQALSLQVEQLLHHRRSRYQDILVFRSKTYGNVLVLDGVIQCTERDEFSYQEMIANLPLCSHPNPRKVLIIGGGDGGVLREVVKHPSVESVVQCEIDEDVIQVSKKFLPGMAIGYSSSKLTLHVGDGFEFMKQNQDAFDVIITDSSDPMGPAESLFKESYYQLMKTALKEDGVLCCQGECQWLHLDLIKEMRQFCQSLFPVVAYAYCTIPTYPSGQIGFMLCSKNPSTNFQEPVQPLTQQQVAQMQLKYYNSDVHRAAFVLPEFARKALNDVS

hair regrowth = assay: Animal hair growth inhibition assay; type: in vivo, mice
[2] = tested on: cell growth when given with DFMO; assay: EC50 determined as disclosed in Weeks et al. (cell growth when given with DFMO); type: cell-based; settings: determined as in Weeks et al. Exp Cell Res. 2000
[3] = biological target: T2, ornithine decarboxylase (ODC) (Homo sapiens, UniProt P11926); settings: reversible / cofactor-interaction ODC inhibitors, literature; cited from earlier work
T2 sequence (P11926 1-461): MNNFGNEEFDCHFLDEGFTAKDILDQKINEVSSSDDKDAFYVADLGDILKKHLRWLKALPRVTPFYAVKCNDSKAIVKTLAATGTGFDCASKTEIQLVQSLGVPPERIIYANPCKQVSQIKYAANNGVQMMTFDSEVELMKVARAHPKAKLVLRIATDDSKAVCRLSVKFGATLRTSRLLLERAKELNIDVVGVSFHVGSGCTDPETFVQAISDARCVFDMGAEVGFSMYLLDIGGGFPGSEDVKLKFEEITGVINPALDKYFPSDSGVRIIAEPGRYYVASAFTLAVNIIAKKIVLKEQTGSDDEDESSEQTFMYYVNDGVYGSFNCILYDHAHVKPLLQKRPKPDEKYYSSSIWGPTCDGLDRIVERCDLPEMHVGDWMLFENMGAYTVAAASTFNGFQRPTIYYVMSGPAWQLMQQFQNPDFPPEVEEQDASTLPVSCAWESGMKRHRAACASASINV

cultured hair follicles = settings: 50 μM polyamine added to MGBG (10 mM) treated cultured hair follicles; cited from earlier work
[4] = tested on: epidermal ornithine decarboxylase activity; settings: topical application of 20 μmole 2 hr after the TPA treatment; cited from earlier work
cultured follicles = settings: cited from earlier work
L1210 leukemia cells = settings: cited from earlier work
fiber growth = settings: sheep treated systemically; cited from earlier work
[5] = tested on: levels of spermidine or spermine in rat prostate; settings: oral, 0.02% or 0.1% in drinking water; cited from earlier work
[6] = rats, 10-day treatment with drug in drinking water; cited from earlier work
[7] = compound with DFMO at 2%, 70% ethanol, pH 7.0, applied once a day for 18 days
[8] = no additional biosynthesis inhibitor (None, or antizyme inducer; agmatine 2%), once a day for 18 days
[9] = mutant L1210 cells with greatly reduced polyamine transport activity

## NCCCNCCCCNCCCNC(=O)[C@H](N)CCCCNCC1CCCCC1 [IVB27]
[1]; read-out: Ave EC50 Value
  EC50: 610 nM

## CC(C)=CCC[C@H](C)CCNCCCC[C@@H](N)C(=O)NCCCNCCCCNCCCN [IVB28]
[1]; read-out: Ave EC50 Value
  EC50: 12800 nM

## CC(C)[C@@H]1CC[C@@H](C)CC1NCCCC[C@@H](N)C(=O)NCCCNCCCCNCCCN (some centres unmarked) [VB28]
[1]; read-out: Ave EC50 Value
  EC50: 1450 nM

## CCCCCN [1-pentylamine]
Spermidine synthase; read-out: IC50
  IC50: 3600 nM

## NCCCNCCCCNCCCNC(=O)[C@@H](N)CCCCNCC1CCCCC1 [MQT 3]
Hair regrowth; compound with BHT 0.5%, 70% ethanol, pH 7.0, once a day for 18 days
  % HGI: 68%
Hair regrowth; [7]
  % HGI: 93%
[2]
  EC50: 780 nM

## CCCCCCCCC(=O)NCCCC[C@@H](N)C(=O)NCCCNCCCCNCCCN [IB6]
[1]; read-out: Ave EC50 value
  EC50: 2200 nM

## CCCC(CCC)NCCCC[C@H](N)C(=O)NCCCNCCCCNCCCN [VA26]
[1]; read-out: Ave EC50 Value
  EC50: 4140 nM

## CC(N)CCON (centres unmarked) [1-Aminooxy-3-aminobutane]
[3]
  Ki: 2.8 nM

## CC(C)(C)CCNCCCC[C@H](N)C(=O)NCCCNCCCCNCCCN [MQT 4]
Hair regrowth; [7]
  % HGI: 63%
Hair regrowth; [8]
  % HGI: 66%
[2]
  EC50: 1600 nM

## NC1CC2CCC1C2 (stereo not drawn) [exo-2-aminonorbornane]
Spermidine synthase; read-out: IC50
  IC50: 5500 nM

## CCCCNCCCC[C@@H](N)C(=O)NCCCNCCCCNCCCN [IVB3]
[1]; read-out: Ave EC50 Value
  EC50: 2190 nM

## NCCCNCCCCNCCCN [spermine]
Cultured hair follicles
  recovery of DNA synthesis: did not overcome the MGBG-mediated inhibition
[4]
  inhibition of the induction of ODC activity: 90%

## CCCCCCNCCCC[C@@H](N)C(=O)NCCCNCCCCNCCCN [IVB5]
[1]; read-out: Ave EC50 Value
  EC50: 710 nM

## CC(C)(C)CCNCCCC[C@@H](N)C(=O)NCCCNCCCCNCCCN [IVB22]
[1]; read-out: Ave EC50 Value
  EC50: 680 nM

## CCCCCCCCCCCCCCCC(=O)NCCCC[C@@H](N)C(=O)NCCCNCCCCNCCCN [IB4]
[1]; read-out: Ave EC50 value
  EC50: 84 nM

## CC(C)(C)CC(=O)NCCCC[C@@H](N)C(=O)NCCCNCCCCNCCCN [IB36]
[1]; read-out: Ave EC50 value
  EC50: 27000 nM

## N=C(N)NCCCCN [Agmatine, reference compound]
Hair regrowth; [8]
  % HGI: 30%

## CC(/C=N/NC(=N)N)=N\NC(=N)N [MGBG, methylglycoxal bis(guanylhydrazone)]
Cultured follicles
  ED50, inhibition of the growth of cultured follicles: ~5000 nM

## NCCCC(NN)C(=O)O (stereo not drawn) [α-Hydrazinoornithine]
[3]
  Ki: 500 nM

## NCCCNCCCCNCCCNC(=O)[C@H](N)CCCCNCC1CC2C=CC1C2 (some centres unmarked) [IVB25]
[1]; read-out: Ave EC50 Value
  EC50: 890 nM

## C[C@](N)(CCCN)C(=O)O [α-methylornithine]
[3]
  Ki: 40000 nM

## NCCCNCCCCNCCCNC(=O)[C@H](N)CCCCNC(=O)c1ccc(-c2ccccc2)cc1 [IB26]
[1]; read-out: Ave EC50 value
  EC50: 1100 nM

## CCCCCCCCCCCCCCCC(=O)NCCCC[C@H](N)C(=O)NCCCNCCCCNCCCN [MQT 2]
Hair regrowth; [7]
  % HGI: 97%
[2]
  EC50: 44 nM

## CCCCCCCNCCCC[C@H](N)C(=O)NCCCNCCCCNCCCN [MQT 6]
Hair regrowth; [7]
  % HGI: 79%
[2]
  EC50: 380 nM

## NCCCNCCCCNCCCNC(=O)[C@H](N)CCCCNC(=O)CC1CC2CCC1C2 (some centres unmarked) [IB37]
[1]; read-out: Ave EC50 value
  EC50: 41000 nM

## NCCCON [1-Aminooxy-3-aminopropane]
[3]
  Ki: 3.2 nM

## CCCCCCCC(=O)NCCCC[C@H](N)C(=O)NCCCNCCCCNCCCN [MQT 5]
Hair regrowth; [7]
  % HGI: 47%
[2]
  EC50: 2200 nM

## NCCCCNCCCN [spermidine]
Cultured hair follicles
  recovery of DNA synthesis: Complete recovery of DNA synthesis
[4]
  inhibition of the induction of ODC activity: 90%

## CC(C)[C@@H]1CC[C@@H](C)C[C@H]1OCC(=O)NCCCC[C@@H](N)C(=O)NCCCNCCCCNCCCN [IB38]
[1]; read-out: Ave EC50 value
  EC50: 13000 nM

## NCCC[C@](N)(C(=O)O)C(F)F [DFMO, α-difluoromethylornithine]
Cultured follicles; in culture media: DFMO 500 μM, N-butyl-1,3-diaminopropane 50 μM
  effect on the growth of cultured follicles: no effect
L1210 leukemia cells; [9]
  increase in median survival time: 87%
  mice cured: 13 of 40
L1210 leukemia cells; parental L1210 cell line
  increase in median survival time: 22%
Hair regrowth; biosynthesis inhibitor alone, compound None (DFMO at 2%; Vaniqua 13.9% DFMO)
  % HGI: 28%
Fiber growth
  fiber diameter increase: 14%
  fiber growth decline: 10%

## NC/C=C/C(N)C(=O)O (stereo not drawn) [trans-3-dehydroornithine]
[3]
  Ki: 4400 nM

## NCCCCN [putrescine]
[4]
  inhibition of the induction of ODC activity: 50%

## NCCCNC1CCCCC1 [APCHA, N-(3-aminopropyl)cyclohexylamine]
[5]
  levels of spermidine or spermine in rat prostate: significantly reduced levels
[6]
  LD50: > 500 mg/kg

## CCCCN [Compound 1-butylamine, 1-butylamine]
Spermidine synthase
  Ki: 520 nM
Spermidine synthase; read-out: IC50
  IC50: 3800 nM

## C=CCCCN [5-amino-1-pentene]
Spermidine synthase
  IC50: respectable activity

## CC1CCC(N)CC1 (centres unmarked) [Compound 4MCHA, 4-methylcyclohexylamine]
[5]
  levels of spermidine or spermine in rat prostate: significantly reduced levels
[6]
  LD50: more than 250 mg/kg

## NCCCCCCNCCCCCCNCc1ccc(CNCCCN)cc1 [MQT 7]
Hair regrowth; [8]
  % HGI: 94%

## NCCCCCCCN [1,7-diaminoheptane]
[4]
  inhibition of the induction of ODC activity: 90%

## NCCCNCCCCNCCCNC(=O)[C@H](N)CCCCNC(=O)c1ccco1 [IB25]
[1]; read-out: Ave EC50 value
  EC50: 10000 nM

## NCCCNCCCCNCCCNC(=O)[C@H](N)CCCCNC(=O)c1ccccc1 [IB24]
[1]; read-out: Ave EC50 value
  EC50: 30000 nM

## NC1CCCCC1 [cyclohexylamine]
Spermidine synthase; read-out: IC50
  IC50: 8100 nM

## C[C@H]1CC[C@H](N)CC1 [trans-4-methylcyclohexylamine]
Spermidine synthase; read-out: IC50
  IC50: 1700 nM

## CCCCCCCC(=O)NCCCC[C@@H](N)C(=O)NCCCNCCCCNCCCN [IB7]
[1]; read-out: Ave EC50 value
  EC50: 13000 nM

## NC1CCC(N)(C(=O)O)CC1 (stereo not drawn) [trans-1,4-diaminocyclohexane-1-carboxylic acid]
[3]
  Ki: 70000 nM

## NCCCNCCCCNCCCNC(=O)[C@H](N)CCCCNC(=O)C(c1ccccc1)c1ccccc1 [IB29]
[1]; read-out: Ave EC50 value
  EC50: 2100 nM

## CCCCCCC(=O)NCCCC[C@@H](N)C(=O)NCCCNCCCCNCCCN [IB8]
[1]; read-out: Ave EC50 value
  EC50: 3500 nM

## CCCCCCCCCCCCCCCCCC(=O)NCCCC[C@@H](N)C(=O)NCCCNCCCCNCCCN [IB2]
[1]; read-out: Ave EC50 value
  EC50: 83 nM

## NCCCNCCCCNCCCNC(=O)[C@H](N)CCCCNCc1ccc(-c2ccccc2)cc1 [IVB33]
[1]; read-out: Ave EC50 Value
  EC50: 1380 nM

## CC(C)CCNCCCC[C@@H](N)C(=O)NCCCNCCCCNCCCN [IVB21]
[1]; read-out: Ave EC50 Value
  EC50: 1320 nM

## CC(C)(C)C(=O)NCCCC[C@@H](N)C(=O)NCCCNCCCCNCCCN [IB34]
[1]; read-out: Ave EC50 value
  EC50: 8500 nM

## CC(C)CNCCCC[C@@H](N)C(=O)NCCCNCCCCNCCCN [IVB23]
[1]; read-out: Ave EC50 Value
  EC50: 1790 nM

## CCCCCC(=O)NCCCC[C@@H](N)C(=O)NCCCNCCCCNCCCN [IB9]
[1]; read-out: Ave EC50 value
  EC50: 12000 nM

## CCCCCCCNCCCC[C@@H](N)C(=O)NCCCNCCCCNCCCN [IVB6]
[1]; read-out: Ave EC50 Value
  EC50: 890 nM

## NCCCNCCCCNCCCNC(=O)[C@H](N)CCCCNC(=O)C12CC3CC(CC(C3)C1)C2 [IB30]
[1]; read-out: Ave EC50 value
  EC50: 2000 nM

## NCCCCCCNCCCCCNCCN [MQT 8]
Hair regrowth; [8]
  % HGI: 53%

## CC(C)C(=O)NCCCC[C@@H](N)C(=O)NCCCNCCCCNCCCN [IB33]
[1]; read-out: Ave EC50 value
  EC50: 8400 nM

## CC(C)(C)CNCCCC[C@@H](N)C(=O)NCCCNCCCCNCCCN [IVB24]
[1]; read-out: Ave EC50 Value
  EC50: 1320 nM

## CC(C)CC(C)NCCCCC(N)C(=O)NCCCNCCCCNCCCN (single isomer, unassigned) [VA21]
[1]; read-out: Ave EC50 Value
  EC50: 650 nM
[1]; read-out: Ave EC50 value
  EC50: 650 nM
